Data on 10 molecules can be found in US7138122B2, “Therapeutic systems” (Enzacta R & D Limited, priority 1997, dated 2006).

Entries after “also recorded” stand apart in the source; their conditions may differ.

Data set [1] has as its target T1, NQO2 (Homo sapiens, UniProt P16083).
T1 sequence (P16083 1-231): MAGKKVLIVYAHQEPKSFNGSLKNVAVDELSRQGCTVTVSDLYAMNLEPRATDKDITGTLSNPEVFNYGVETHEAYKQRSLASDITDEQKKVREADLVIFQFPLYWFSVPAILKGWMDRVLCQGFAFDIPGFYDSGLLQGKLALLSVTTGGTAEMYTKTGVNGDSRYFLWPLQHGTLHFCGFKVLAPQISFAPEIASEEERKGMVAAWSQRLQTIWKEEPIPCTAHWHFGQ
Description: Co-substrate activity with NQO2 for reduction of CB 1954 (HPLC). It counts as biochemical. Details: restriction site were added to the 5′ and 3′-ends of the full-length NQO2 cDNA; made in house; host or cells: E. coli (expression vector pKK233-2, plasmid pKK-hNQO2). To be noted: for ability to act as co-substrate for NQO2: reduction of CB 1954 by NQO2; for Km: of NQO2 for the co-substrate, CB1954 as electron acceptor (100 μM); for kcat: of NQO2 with the co-substrate, CB1954 as electron acceptor; for RELATIVE RATE OF REDUCTION: CB 1954 reduction by NQO2, co-substrate initial 500 μM, CB 1954 initial 100 μM. The procedure:
The effect of various co-substrates on CB 1954 was determined as above but NADH. NADPH or NMNH was substituted for the NRH and CB 1954 was used at a fixed concentration of 100 μM. The enzyme concentration was 5 μg/ml. The reduction of CB 1954 was monitored by measuring both the decrease in its corresponding peak area on the HPLC trace and the increase in the area of the peak corresponding to the reduction product 5-(aziridin-1-yl)-4-hydroxylamino-2-nitrobenzamide. The relative rates of reduction were determined at 10% reduction of CB1954 from a graph plotting CB 1954 reduction against time. The time axis was normalised to the equivalent of 10 μg/ml of NQO2.
The activity of various potential co-substrates was determined by HPLC analysis in the presence of CB1954 and NQO2. To determine the kinetic parameters NQO2 (1 μg/ml) was incubated with NRH (5000 μM) and CB1954 at different concentrations (0.1 to 2 mM) in sodium phosphate buffer (10MM, pH 7) at 37° C. At various times, aliquots (10 μl) were injected onto a Partisphere SCX (250×4.5 mm) HPLC column (Whatman Ltd) and eluted isocratically (1.5 ml/min) with 50 mM aqueous sodium phosphate containing 1% methanol. The eluate was continuously monitored for absorption at 320 nm. […] The reduction of CB1954 was monitored by quantifying the increase in the area of the peak corresponding to the reduction product 5-(aziridin-1-yl)-4-hydroxylamino-2-nitrobenzamide. All the assays were initiated by addition of the enzyme and performed in duplicate. The kinetic parameters were calculated by plotting the initial rate of reduction at each concentration of CB1954 against that concentration and fitting the data to the Michaelis-Menton equation using a computer programme (Fig P). Values were confirmed by transforming the data and fitting it to various linear forms of the equation by regression analysis.
The effect of various co-substrates on CB1954 reduction was determined as above but the co-substrate was substituted for the NRH and C1954 was used at a fixed concentration of 100 μM. The enzyme concentration was 1 or 5 μg/ml. The reduction of CB1954 was monitored by measuring both the decrease in its corresponding peak area on the HPLC trace and the increase in the area of the peak corresponding to the reduction product 5-(aziridin-1-yl)-4-hydroxylamino-2-nitrobenzamide. The relative rates of reduction were determined at 10% reduction of CB1954 from a graph plotting CB1954 reduction against time. The time axis was normalised to the equivalent of 10 μg/ml of NQO2. The kinetic parameters of NQO2 for the various co-substrates was determined as for CB1954 except that the initial concentration of CB1954 was constant at 100 μm whilst that of the co-substrate was varied from 0 to 2 mM. The enzyme concentration was 0.5 μg/ml.

A further data set concerns wild-type V79 cells. Description: Uptake of NQO2 co-substrates into V79 cells (fluorimetry). To be noted: for uptake / internalisation into cells: 1 mM co-substrate, 37° C. It counts as in vitro ADME, Chinese hamster. The procedure:
The uptake of various NQO2 co-substrates into V79 cells was determined by fluorimetry. V79 cells were seeded into T25 tissue culture flasks and allowed to grow to confluence (^−2×10^7 cells). The growth medium was removed and replaced with 10 mls of fresh medium containing 1 mM of co-substrate and incubated at 37° C. At various the medium was removed and the cell monolayer washed ×5 with 50 mL of ice cold PBS. The cells were removed by trypsinisation and pelleted by centrifugation. The cell pellet was resuspended in alkaline lysis buffer (KOH 0.5M; 36% W/v CsCl; in 50% aqueous ethanol) disrupted by agitation and the cell debris removed by centrifugation at 10,000 g. The concentration of co-substrate was determined by fluorimetry (excitation 360 nm, emission 450 nm, slits 5nm) by diluting 100μl of supernatant in 2.9ml of 100 mM sodium bicarbonate buffer pH 10. The fluorimeter was calibrated against the appropriate standard. All measurements were done in triplicate.

In a further data set the target is T2, Rat DT-diaphorase (Rattus norvegicus, UniProt P05982).
T2 sequence (P05982 2-274 limits assumed): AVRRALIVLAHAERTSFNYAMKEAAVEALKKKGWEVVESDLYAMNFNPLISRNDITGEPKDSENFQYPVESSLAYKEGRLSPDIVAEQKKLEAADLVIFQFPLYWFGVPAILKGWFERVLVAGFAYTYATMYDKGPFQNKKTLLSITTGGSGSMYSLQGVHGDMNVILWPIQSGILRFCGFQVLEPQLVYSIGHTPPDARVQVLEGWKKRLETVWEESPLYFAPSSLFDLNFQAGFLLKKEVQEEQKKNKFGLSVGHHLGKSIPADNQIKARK
The experiment in a line: Use of co-substrates by rat DT diaphorase for reduction of CB1954. It counts as biochemical.

Data set [2] in a line: Effect on the body weight of normal mice (in vivo toxicity). The following applies: intravenous (tail vein), 8 day period. The procedure:
Mice (6 groups of 3) were injected intravenously (tail vein) with either compound 1 or 2 at the doses shown and the weight of the mice was monitored over an 8 day period. Control mice received vehicle (phosphate buffered saline) only.

In the next data set the target is E. coli nitroreductase (Escherichia coli, UniProt P38489). The experiment in a line: Use of co-substrates by E. coli nitroreductase for reduction of CB1954. It counts as biochemical.
E. coli nitroreductase, sequence (P38489 whole entry): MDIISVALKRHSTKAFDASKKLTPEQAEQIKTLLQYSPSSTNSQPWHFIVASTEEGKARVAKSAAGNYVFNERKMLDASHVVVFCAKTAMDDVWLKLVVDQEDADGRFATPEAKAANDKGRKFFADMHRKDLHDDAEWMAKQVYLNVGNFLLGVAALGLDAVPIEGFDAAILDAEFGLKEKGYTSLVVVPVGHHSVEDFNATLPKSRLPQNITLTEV
Data set [3] deals with human T98G gliobastoma cells. The experiment in a line: Cytotoxicity of CB 1954 on T98G glioblastoma cells with NQO2 co-substrates. The following applies: 144 hr in presence of CB 1954.
Data set [4] has as its target T1, NQO2. The experiment in a line: Inhibition of NQO2 by flavones. It counts as biochemical. The following applies: competitive with respect to NRH; read-out: K1 (competitive inhibitor with respect to NRH).
Substrate in data set [5]: NC(=O)c1cc(N2CC2)c([N+](=O)[O-])cc1[N+](=O)[O-]
The experiment in a line: Kinetic parameters of NQO2 with respect to CB 1954 (HPLC). It counts as biochemical, human. To be noted: other: with respect to CB 1954; NRH as co-substrate; pH 7.0; 37.0 °C. The procedure:
Recombinant human NQO2 was prepared in E. coli. A NcoI and a HindIII restriction site were added to the 5′ and 3′-ends of the full-length NQO2 cDNA, respectively, using a PCR method with primers and nucleotide sequences derived from the 5′ and 3′-ends of the cDNA. The PCR product was resolved over a 1% agarose gel and then extracted using the QiAquick Gel Extraction Kit (Qiagen Inc). The gel-purified PCR product was cloned into PCRII vector from the TA cloning kit (Invitrogen Co) and the correct sequence of the PCR product was checked by dideoxy sequencing. The resulting construct was religated into the E. coli expression vector, pKK233-2 (Pharmacia) through the engineered NcoI and HindIII restriction sites. The expression plasmid was designated pKK-hNQO2. […] The purified NQO2 preparation was analysed by SDS-PAGE electrophoresis. The activity of NQO2 in the presence of CB 1954, and various cofactors was determined by HPLC. […] The eluate was continuously monitored for absorption at 320 nm. […] The reduction of CB 1954 was monitored by quantifying the increase in the area of the peak corresponding to the reduction product 5-(aziridin-1-yl)-4-hydroxylamino-2-nitrobenzamide. […] The kinetic parameters were calculated by plotting the initial rate of reduction at each concentration of CB 1954 against that concentration and fitting the data to the Michales-Menton equation using a computer programme (FigP). […]

Consider `NC(=O)C1=CN(Cc2ccccc2)C=CC1` [Compound 8, 1-benzyl-dihydronicotinamide], for which the “ability to act as co-substrate for NQO2” value is “not cosubstrates” on NQO2 [1] and “not co-substrates” on NQO2 [1] (listed as compound 8).
For the molecule `NC(=O)C1=CN(CCCS(=O)(=O)O)C=CC1` [Compound 1, 1-(3-sulfonatopropyl)-dihydronicotinamide], the “uptake / internalisation into cells” value with wild-type V79 cells was “excluded from the cells; also recorded: do not expect it to enter cells and this is what is observed”. Moreover, the “uptake / internalisation into cells” value in the data set on wild-type V79 cells (listed as compound 1) is “excluded from cells; also recorded: not able to enter the cells”. The “ability of rat DT diaphorase to use as co-substrate” value (“ability of rat DT diaphorase to use” for short) on Rat DT-diaphorase is reported as “able to use”. Further, on NQO2 [1], the Km came to 1080 ± 135 µM and the kcat worked out at 25.5 s⁻¹. Moreover, the “intrinsic toxicity as judged by body weight loss” value in data set [2] is reported as “no evidence of intrinsic toxicity”. Also, the “ability of E. coli nitroreductase to use as co-substrate” value (“ability of E. coli nitroreductase” below) at E. coli nitroreductase is listed as “not able to use either”. In addition, the “increase of the cytotoxicity of CB 1954 by added co-substrate” value in data set [3] was “did not potentiate; also recorded: no potentialtion is observed”.
Consider `NC(=O)CN1C=CCC(C(N)=O)=C1` [Compound 2, 1-(carboxamidomethyl)-dihydronicotinamide], for which, in the data set on wild-type V79 cells, the “internalisation relative to NRH” value is on record as “about 10 % of NRH” and the “uptake / internalisation into cells” value was “poorly internalised”. Further, the “ability of rat DT diaphorase to use” value on Rat DT-diaphorase is “able to use”. Besides, on NQO2 [1], the Km was found to be 198 ± 19 µM and the kcat came to 12.5 s⁻¹. Moreover, the “intrinsic toxicity as judged by body weight loss” value in data set [2] is “no evidence of intrinsic toxicity”. The “ability of E. coli nitroreductase” value at E. coli nitroreductase is reported as “not able to use either”.
Turning to `O=c1c(O)c(-c2ccc(O)c(O)c2)oc2cc(O)cc(O)c12` [Quercetin, 3,5,7,3′,4′-pentahydroxyflavone], at NQO2 [4], the Ki was 27 nM.
Consider `NC(=O)C1=CN([C@@H]2O[C@H](COP(=O)(O)O)[C@@H](O)[C@H]2O)C=CC1` [NMNH], for which the “RELATIVE RATE OF REDUCTION” value on NQO2 [1] worked out at 5.6.
`O=C(O)C1=CN(C2O[C@H](COP(=O)(O)O)[C@@H](O)[C@H]2O)C=CC1` (some centres unmarked) [nicotinic acid mononucleotide (reduced)]: the “ability to act as co-substrate for NQO2” value on NQO2 [1] is recorded as “not co-substrates”.
For the molecule `NC(=O)C1=CN([C@@H]2O[C@H](COP(=O)(O)OP(=O)(O)OC[C@H]3O[C@@H](n4cnc5c(N)ncnc54)[C@H](O)[C@@H]3O)[C@@H](O)[C@H]2O)C=CC1` [NADH], the “ability of rat DT diaphorase to use” value at Rat DT-diaphorase is listed as “can use NADH as a co-substrate”. Moreover, at NQO2 [1], the “RELATIVE RATE OF REDUCTION” value was 1.0 and the “ability to act as co-substrate for NQO2” value is “not readily catalysed; also recorded: not cosubstrates; also recorded: poor co-substrates”. Moreover, the “ability of E. coli nitroreductase” value on E. coli nitroreductase is given as “can use NADH as a co-substrate”.
On to `NC(=O)C1=CN(CCc2ccccc2)C=CC1` [Compound 11], for which the “ability to act as co-substrate for NQO2” value at NQO2 [1] was “not cosubstrates; also recorded: poor co-substrate”.
Turning to `NC(=O)C1=CN([C@@H]2O[C@H](COP(=O)(O)OP(=O)(O)OC[C@H]3O[C@@H](n4cnc5c(N)ncnc54)[C@H](OP(=O)(O)O)[C@@H]3O)[C@@H](O)[C@H]2O)C=CC1` [NADPH], on NQO2 [1], the “RELATIVE RATE OF REDUCTION” value is listed as 1.24 and the “ability to act as co-substrate for NQO2” value is “not readily catalysed; also recorded: not cosubstrates; also recorded: poor co-substrates”.

B1: Recombinant human NQO2 (Homo sapiens) (protein)
chain: MAGKKVLIVYAHQEPKSFNGSLKNVAVDELSRQGCTVTVSDLYAMNLEPRATDKDITGTLSNPEVFNYGVETHEAYKQRSLASDITDEQKKVREADLVIFQFPLYWFSVPAILKGWMDRVLCQGFAFDIPGFYDSGLLQGKLALLSVTTGGTAEMYTKTGVNGDSRYFLWPLQHGTLHFCGFKVLAPQISFAPEIASEEERKGMVAAWSQRLQTIWKEEPIPCTAHWHFGQ
notes: restriction site were added to the 5′ and 3′-ends of the full-length NQO2 cDNA; made in house; host or cells: E. coli (expression vector pKK233-2, plasmid pKK-hNQO2)
For the molecule B1, in data set [5], the Km was determined as 263 ± 13 µM and the kcat amounted to 6.01 s⁻¹.
